Assay [1] has as its system HeLa. Description: Induction of apoptosis in human HeLa cells assessed as increase in caspase 3 activity at 5 uM after 24 hrs by fluorimetry relative to control. The format is functional.
Assay [2] is described as follows: Inhibition of bovine tubulin assembly after 1 hr by fluorescence assay. On the set-up: species or system Bos taurus.
Assay [3] deals with HeLa. Nature of the assay: Induction of cell cycle arrest in human HeLa cells assessed as accumulation of cells in G1 phase at 5 uM after 24 hrs by flow cytometry analysis (reference value: 69.43%). In kind it is functional.
In assay [4] the test system is HeLa. Nature of the assay: Induction of cell cycle arrest in human HeLa cells assessed as accumulation of cells in S phase at 5 uM after 24 hrs by flow cytometry analysis (reference value: 9.28%). In kind it is functional.
Assay [5] has as its system HeLa. Description: Induction of cell cycle arrest in human HeLa cells assessed as accumulation of cells in G2/M phase at 5 uM after 24 hrs by flow cytometry analysis (reference value: 21.29%). The format is functional.
Assay [6] deals with HeLa. Description: Antimitotic activity in human HeLa cells assessed as disruption of microtubule network at 5 uM after 24 hrs by indirect immunofluorescence analysis. The format is functional, cell-based.
Assay [7] relates to HeLa. Nature of the assay: Effect on formation of bipolar spindles in human HeLa cells at 5 uM after 24 hrs by indirect immunofluorescence analysis. In kind it is functional, cell-based.
Assay [8] relates to HeLa. Nature of the assay: Effect on nuclear condensation in human HeLa cells assessed as incomplete chromosome formation at 5 uM after 24 hrs by indirect immunofluorescence analysis. In kind it is functional, cell-based.
The species entered for the next assay is Bos taurus. Nature of the assay: Inhibition of bovine tubulin polymerization at 3 uM after 1 hr by fluorescence assay relative to control.
A further assay deals with MCF7. Nature of the assay: Antiproliferative activity against human MCF7 cells assessed as cell viability after 48 hrs by SRB assay. In kind it is functional, cell-based. The settings on record: MCF7, 48 h.
The subject of a further assay is A549. Description: Antiproliferative activity against human A549 cells assessed as cell viability after 48 hrs by SRB assay. In kind it is functional, cell-based. The settings on record: A549, 48 h.
For assay [9], the system named is HeLa. Nature of the assay: Antiproliferative activity against human HeLa cells assessed as cell viability after 48 hrs by SRB assay. The settings on record: for pIC50: Homo sapiens, HeLa, 48 h; for IC50: hela. In kind it is functional, cell-based.
Assay [10] deals with HeLa. Description: Induction of apoptosis in human HeLa cells assessed as increase in caspase 3 activity at 40 uM after 24 hrs by fluorimetry relative to control. The format is functional.
For assay [11], the system named is HeLa. Nature of the assay: Induction of apoptosis in human HeLa cells assessed as increase in caspase 3 activity at 5 uM after 24 hrs by fluorimetry. In kind it is functional, cell-based.

pIC50: −log10 of the molar value. Calls of active or inactive are those of the source. The calls are words filed in the database; no cut-off is given here.

From ChEMBL document CHEMBL1833868, “Design and synthesis of resveratrol-based nitrovinylstilbenes as antimitotic agents” (J Med Chem, 2011) come the findings set out here.

As for `COc1cc(/C=C/[N+](=O)[O-])c(/C=C/c2ccc(C)cc2)c(OC)c1OC`, the “fold change (FC)” value with HeLa [1] is on record as 12. Moreover, the pIC50 in assay [2] is 5.37; with MCF7, 4.37; with A549, 4.72; in the assay with HeLa [9], 5.36. For the same molecule, the figures for the Activity with HeLa [3], in the assay on HeLa [4] and with HeLa [5] were 9.66%, 23.91% and 66.43%, respectively. Also, the result in the assay on HeLa [6] and with HeLa [8] was Active. The result in the assay with HeLa [7] was inactive. This molecule also displayed an inhibition in the assay filed under Bos taurus of 62%.
Regarding `COc1cc(/C=C/c2c(/C=C/[N+](=O)[O-])cc(OC)c(OC)c2OC)cc(OC)c1`, the inhibition in the assay filed under Bos taurus is 27%. Moreover, the pIC50 is 4.72 with MCF7, 4.82 in the assay with A549 and 5.00 in the assay with HeLa [9].
On to `COc1cc(/C=C/[N+](=O)[O-])c(/C=C/c2ccc(Br)cc2)c(OC)c1OC`, for which, in the assay filed under Bos taurus, the inhibition is 28%. Besides, the pIC50 is 4.84 with MCF7 and 4.39 in the assay on A549. In the assay with HeLa [9], the IC50 entry is “Not Active”.
`COc1cc2c(c(OC)c1OC)-c1ccc(OC)c(=O)cc1[C@@H](NC(C)=O)CC2` [COLCHICINE]: the pIC50 in [2] was 5.71. In the assay listed under Bos taurus, this molecule displayed an inhibition of 58%.
Consider `Oc1ccc(/C=C/c2cc(O)cc(O)c2)cc1` [RESVERATROL], for which the “fold change (FC)” value with HeLa [10] was 5. Also, the pIC50 is 4.10 with MCF7, 4.35 in the assay on A549 and 4.65 with HeLa [9]. Further, in the assay with HeLa [11], the outcome was inactive.
Turning to `COc1cc(/C=C/[N+](=O)[O-])c(/C=C/c2ccccc2)c(OC)c1OC`, in the assay filed under Bos taurus, the inhibition was 31%. Besides, the pIC50 in the assay with MCF7 is 4.96; in the assay on A549 it was 4.54; in the assay with HeLa [9] it was 5.27.
In turn, `COc1cc(/C=C/[N+](=O)[O-])c(/C=C/c2ccc(F)cc2)c(OC)c1OC` displayed an inhibition in the assay filed under Bos taurus of 31%. In addition, the results for the pIC50 in the assay on MCF7, with A549 and with HeLa [9] were 4.72, 4.44 and 4.91, respectively.
Consider `COc1ccc(/C=C/c2c(/C=C/[N+](=O)[O-])cc(OC)c(OC)c2OC)cc1`, for which the “fold change (FC)” value in the assay with HeLa [1] is recorded as 10. Further, the pIC50 in [2] was 5.31; with MCF7, 4.67; in the assay with A549 it was 4.39; in the assay on HeLa [9] it was 5.11. For the same molecule, the Activity in the assay with HeLa [3] worked out at 16.64%; with HeLa [4], 22.96%; with HeLa [5] it was 60.4%. In addition, the outcome in the assay on HeLa [6] and with HeLa [8] was Active. For the same molecule, the result with HeLa [7] was inactive. This molecule also returned an inhibition in the assay listed under Bos taurus of 59%.
The molecule `COc1cc(/C=C/c2c(/C=C/[N+](=O)[O-])cc(OC)c(OC)c2OC)cc(OC)c1OC` showed an inhibition in the assay listed under Bos taurus of 20%. For the same molecule, the pIC50 was 4.88 in the assay on MCF7 and 4.57 with A549. Further, in the assay on HeLa [9], the IC50 result was “Not Active”.
The molecule `COc1cc(/C=C/[N+](=O)[O-])c(/C=C/c2ccc(-c3ccccc3)cc2)c(OC)c1OC` yielded an inhibition in the assay listed under Bos taurus of 28%. Moreover, the negative logarithm of the IC50 (pIC50) in the assay on MCF7 is 5.14; in the assay on A549, 4.35. Further, in the assay on HeLa [9], the IC50 result is recorded as “Not Active”.
The molecule `COc1cc(/C=C/[N+](=O)[O-])c(/C=C/c2ccc3ccccc3c2)c(OC)c1OC` registered an inhibition in the assay filed under Bos taurus of 32%. Further, the pIC50 in the assay on MCF7 was 4.78; in the assay on A549, 4.23; with HeLa [9] it was 3.72.
Take `COc1cc(/C=C/[N+](=O)[O-])c(/C=C/c2ccc3c(c2)OCO3)c(OC)c1OC`: the pIC50 in assay [2] was 5.10; in the assay with MCF7 it was 4.72; in the assay with A549, 4.79; in the assay with HeLa [9], 5.27. Besides, the Activity with HeLa [3] is 27.14%; in the assay with HeLa [4], 22.3%; in the assay with HeLa [5], 50.56%. The molecule also came in with an inhibition in the assay listed under Bos taurus of 51%.
`COc1cc(/C=C/[N+](=O)[O-])c(/C=C/c2ccc(Cl)cc2)c(OC)c1OC` returned an inhibition in the assay filed under Bos taurus of 33%. The pIC50 is 4.59 in the assay with MCF7 and 4.64 with A549. For the same molecule, in the assay on HeLa [9], the IC50 result was “Not Active”.
